Values joined by “and” are separate entries in the source; they are usually repeats but may differ in a detail not shown here. Equal values may be shown once.
Assays:
HEK-293-αVβ3 cells [1] = target: T1, HEK-293-αVβ3 cells (Homo sapiens, UniProt P05106+P06756); assay: αVβ3 Cell Adhesion to Fibrinogen Assay; type: cell-based; set-up: IC50; other: dose reducing by 50% the adhesion of HEK-293-αVβ3 cells to fibrinogen; untreated cells 100% adhesion, 10 mM EDTA 0%; settings: for IC50: dose reducing by 50% the adhesion of HEK-293-αVβ3 cells to fibrinogen, separate determinations listed
T1 sequence (P05106 whole entry): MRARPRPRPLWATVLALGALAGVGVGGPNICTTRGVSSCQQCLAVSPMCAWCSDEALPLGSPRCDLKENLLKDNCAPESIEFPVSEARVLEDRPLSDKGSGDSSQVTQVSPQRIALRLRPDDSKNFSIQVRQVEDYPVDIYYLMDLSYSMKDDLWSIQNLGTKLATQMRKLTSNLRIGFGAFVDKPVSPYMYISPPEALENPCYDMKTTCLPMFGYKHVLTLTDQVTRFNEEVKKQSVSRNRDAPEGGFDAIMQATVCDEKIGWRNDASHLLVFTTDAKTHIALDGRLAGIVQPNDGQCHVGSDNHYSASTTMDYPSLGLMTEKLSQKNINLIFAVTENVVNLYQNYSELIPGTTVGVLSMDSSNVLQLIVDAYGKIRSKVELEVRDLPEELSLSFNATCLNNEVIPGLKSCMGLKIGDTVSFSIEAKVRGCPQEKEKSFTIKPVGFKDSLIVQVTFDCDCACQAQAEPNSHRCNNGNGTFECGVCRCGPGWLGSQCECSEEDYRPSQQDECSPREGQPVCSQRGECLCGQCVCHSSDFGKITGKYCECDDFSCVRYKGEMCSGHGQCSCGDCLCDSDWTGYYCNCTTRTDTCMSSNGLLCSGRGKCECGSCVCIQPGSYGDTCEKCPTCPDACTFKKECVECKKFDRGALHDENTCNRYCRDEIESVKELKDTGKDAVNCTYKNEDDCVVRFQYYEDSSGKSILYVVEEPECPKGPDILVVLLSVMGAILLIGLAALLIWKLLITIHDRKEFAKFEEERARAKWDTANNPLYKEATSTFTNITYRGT
T1 sequence (P06756 whole entry): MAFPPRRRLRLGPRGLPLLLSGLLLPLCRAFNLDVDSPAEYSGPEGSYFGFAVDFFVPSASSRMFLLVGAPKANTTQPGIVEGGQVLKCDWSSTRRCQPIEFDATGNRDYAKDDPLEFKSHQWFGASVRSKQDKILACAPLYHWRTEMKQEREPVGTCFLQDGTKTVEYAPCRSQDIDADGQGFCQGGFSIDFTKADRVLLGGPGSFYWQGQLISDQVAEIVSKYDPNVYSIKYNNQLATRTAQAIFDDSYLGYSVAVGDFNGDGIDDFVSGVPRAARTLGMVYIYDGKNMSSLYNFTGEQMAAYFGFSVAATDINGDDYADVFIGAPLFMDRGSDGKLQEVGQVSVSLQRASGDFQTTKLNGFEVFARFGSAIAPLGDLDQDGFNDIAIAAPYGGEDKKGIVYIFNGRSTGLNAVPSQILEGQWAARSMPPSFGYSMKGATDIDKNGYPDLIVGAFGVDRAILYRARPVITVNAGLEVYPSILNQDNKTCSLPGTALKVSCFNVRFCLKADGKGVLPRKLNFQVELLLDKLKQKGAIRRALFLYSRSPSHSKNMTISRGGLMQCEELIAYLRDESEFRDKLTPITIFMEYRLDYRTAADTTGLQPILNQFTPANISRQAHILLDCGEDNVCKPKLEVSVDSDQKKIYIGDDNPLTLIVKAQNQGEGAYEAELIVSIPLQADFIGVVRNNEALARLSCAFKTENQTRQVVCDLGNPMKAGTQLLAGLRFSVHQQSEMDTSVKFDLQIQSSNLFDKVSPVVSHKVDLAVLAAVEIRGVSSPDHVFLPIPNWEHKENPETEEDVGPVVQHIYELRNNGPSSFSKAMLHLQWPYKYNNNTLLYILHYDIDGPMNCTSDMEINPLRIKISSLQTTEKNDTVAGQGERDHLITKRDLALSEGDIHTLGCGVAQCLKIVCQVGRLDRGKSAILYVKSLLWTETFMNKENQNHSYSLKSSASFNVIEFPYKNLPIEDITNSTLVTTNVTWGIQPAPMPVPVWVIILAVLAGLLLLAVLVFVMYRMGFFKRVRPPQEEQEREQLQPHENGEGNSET
From the text: (§1) HEK-293 Cells Expressing αVβ3. HEK-293 cells were transfected using lipofectamine 2000 (Invitrogen #11668030) with the cDNA for αV using the pEF1/V5-His A vector and the cDNA for β3 using the vector pcDNA3.1. Cells expressing αVβ3 were identified by their reaction with murine monoclonal antibodies (mAbs) LM609 and 7E3, and stable cell lines were established by repetitive sorting using LM609. […] HEK-293-αVβ3 cells for assays are counted in an automated cell counter (ADVIA 120) and adjusted to values appropriate for each assay.
αVβ3 Cell Adhesion to Fibrinogen Assay. Polystyrene 96-well microtiter plates (Costar, 3590) are precoated with 3.5 μg/mL of purified fibrinogen (Enzyme Research Laboratories) in 0.15 M NaCl, 0.01 M Tris/HCL, pH 7.4 for 1 hour at 37° C. The wells are then washed and incubated with HEPES-Buffered Modified Tyrode's solution (HBMT; 0.128 M NaCl, 10 mM HEPES, 12 mM NaHCO3, 0.4 mM NaH2PO4, 2.7 mM KCl, 0.35% bovine serum albumin (Fisher), 0.1% glucose, pH 7.4) for 1 hour at room temperature or overnight at 4° C. Wells are washed with HBMT containing 1 mM Mg2+ and 2 mM Ca2+ and then 50 μL of HEK-293-αVβ3 cells that have been pretreated with the compound to be tested for 20 minutes at room temperature are added to each well at a concentration of 3,000 cells/μL. After 30-32 minutes the wells are washed with HBMT containing Ca2+ and Mg2+ three times and then the adherent cells are lysed and the acid phosphatase activity that is released is measured by: 1. adding phosphatase substrate (Sigma EC 224-246-5) at 2 mg/mL in 0.1 M Na citrate, pH 5.6, 0.1% triton X-100 for 1 hour at room temperature; 2. stopping the reaction by adding 50 μL of 2 M NaOH; and 3. analyzing the samples in a spectrophotometer at 405 nm. In each assay, 10 mM EDTA is used as a positive control and untreated cells are used as a negative control. The IC50 is the dose of test compound that reduces by 50% the adhesion of the HEK-293-αVβ3 cells, taking the results with untreated cells as 100% and the results in the presence of EDTA as 0%. In some instances more than one IC50 determination was made, in which case, results of separate determinations are reported. IC50's were not determined for all compounds in the table; for some of these test compounds the inhibition at specific doses are reported. In some instances, the test compound produced a greater reduction than 10 mM EDTA, and these are shown as negative numbers.

HEK-293-αVβ3 cells [2] = target: T1, HEK-293-αVβ3 cells; assay: AP5 Binding Assay; type: cell-based; settings: for activation at 10 µM / AP5 expression induced at the highest concentration: relative to AP5 expression induced by cilengitide, @10 μM; for activation at 10 µM: read-out: AP5 expression induced at the highest concentration; for EC50: concentration inducing 50% of the AP5 expression induced by 1 μM cilengitide
From the text: as §1
AP5 Binding Assay. HEK-293-αVβ3 cells are harvested using 0.05% trypsin 0.5 mM EDTA, washed with HBMT once, and resuspended in HBMT containing 1 mM Mg2+ and 2 mM Ca2+. The cells are counted and adjusted to 0.5×10^6 cells per sample. The compound to be tested and fluorescently labeled mAb AP5 (either Alexa 488 or Alexa 674; 10 μg/mL) are added and incubated for 30 minutes at 37° C. The cells are then washed and analyzed by flow cytometry (BD FACSCalibur) at the appropriate wavelength for detecting the AP5 fluorophore. In each assay, cilengitide (1 μM) and 10 mM EDTA are included as positive controls and untreated cells are used as the negative control. The concentration of the test compound required to induce the expression of 50% of the AP5 expression induced by cilengitide is calculated and defined as the EC50. The EC50 for cilengitide was determined based on the expression induced by EDTA.

IC50 (HEK-293-αVβ3 cells [1])	activation at 10 µM (HEK-293-αVβ3 cells [2]) [%]	EC50 (HEK-293-αVβ3 cells [2]) [nM]	SMILES	other results
320 nM	9	> 10000	O=C(CCCCc1ccc2c(n1)NCCC2)NCCC(NC(=O)OCc1ccc(F)c(F)c1)C(=O)O (stereo not shown) [Example 68]	–
146 nM and 484 nM and 699 nM and 362 nM and 324 nM and 344 nM	16	> 10000	O=C(CCCCc1ccc2c(n1)NCCC2)NCC[C@H](NC(=O)OCc1ccccc1)C(=O)O [Example 3, (2S)-2-(Benzyloxycarbonylamino)-4-[5-(5,6,7,8-tetrahydro-1,8-naphthyridin-2-yl)pentanoylamino]butanoic acid]	–
225 nM and 773 nM and 952 nM and 537 nM and 612 nM and 683 nM	5	> 10000	O=C(CCCCc1ccc2c(n1)NCCC2)NCC[C@@H](NC(=O)OCc1ccccc1)C(=O)O [Example 4, (2R)-2-(Benzyloxycarbonylamino)-4-[5-(5,6,7,8-tetrahydro-1,8-naphthyridin-2-yl)pentanoylamino]butanoic acid]	–
628 nM	12	> 10000	O=C(CCCCc1ccc2c(n1)NCCC2)NCCC(NC(=O)OCC(F)(F)C(F)(F)F)C(=O)O (stereo not shown) [Example 62]	–
106 nM	–	> 10000	O=C(CCCCc1ccc2c(n1)NCCC2)NCCC(C(=O)O)c1cnc2ccccc2c1 (single isomer, unassigned) [Example 89, 2-(3-quinolyl)-4-[5-(5,6,7,8-tetrahydro-1,8-naphthyridin-2-yl)pentanoylamino]butanoic acid]	AP5 expression induced at the highest concentration (HEK-293-αVβ3 cells [2]): 27%
1570 nM and 429 nM	7.5	> 10000	O=C(CCCCc1ccc2c(n1)NCCC2)NCCC(C(=O)O)c1ccc(Oc2ccccc2)nc1 (stereo not shown) [Example 80, 2-(6-phenoxy-3-pyridyl)-4-[5-(5,6,7,8-tetrahydro-1,8-naphthyridin-2-yl)pentanoylamino]butanoic acid]	–
525 nM	6	> 10000	O=C(CCCCc1ccc2c(n1)NCCC2)NCCC(Nc1nc2ccccc2s1)C(=O)O (stereo not shown) [Example 70, 2-(1,3-Benzothiazol-2-ylamino)-4-[5-(5,6,7,8-tetrahydro-1,8-naphthyridin-2-yl)pentanoylamino]butanoic acid]	–
< 100 nM and 101 nM and 143 nM	9	> 10000	O=C(CCCCc1ccc2c(n1)NCCC2)NCCC(Nc1ncc(-c2ccccc2)cn1)C(=O)O (stereo not shown) [Example 81, 2-[(5-phenylpyrimidin-2-yl)amino]-4-[5-(5,6,7,8-tetrahydro-1,8-naphthyridin-2-yl)pentanoylamino]butanoic acid]	–
248 nM and 359 nM	21	> 10000	O=C(CCCCc1ccc2c(n1)NCCC2)NCCC(NC(=O)OCC1CCC(F)(F)CC1)C(=O)O (stereo not shown) [Example 64]	–
> 10000 nM	–	–	O=C(CCCCc1ccc2c(n1)NCCC2)NCCC(NS(=O)(=O)c1ccc(Oc2ccccc2)cc1)C(=O)O (stereo not shown) [Example 48]	–
115 nM	4	> 10000	O=C(CCCCc1ccc2c(n1)NCCC2)NCCC(NC(=O)c1nc2ccccc2o1)C(=O)O (stereo not shown) [Example 74, 2-(1,3-benzoxazole-2-carbonylamino)-4-[5-(5,6,7,8-tetrahydro-1,8-naphthyridin-2-yl)pentanoylamino]butanoic acid]	–
288 nM	–	> 10000	O=C(CCCCc1ccc2c(n1)NCCC2)NCCC(C(=O)O)n1cnc(-c2ccccc2)n1 (single isomer, unassigned) [Example 93, (S or R)-2-(3-phenyl-1,2,4-triazol-1-yl)-4-[5-(5,6,7,8-tetrahydro-1,8-naphthyridin-2-yl)pentanoylamino]-butanoic acid]	–
228 nM	–	> 10000	O=C(CCCCc1ccc2c(n1)NCCC2)NCCC(C(=O)O)c1cnc2ccccc2c1 (single isomer, unassigned) [Example 90, 2-(3-quinolyl)-4-[5-(5,6,7,8-tetrahydro-1,8-naphthyridin-2-yl)pentanoylamino]butanoic acid]	AP5 expression induced at the highest concentration (HEK-293-αVβ3 cells [2]): 11%
> 10000 nM	–	–	CC(CCNC(=O)CCCCc1ccc2c(n1)NCCC2)C(=O)O (stereo not shown) [Example 12, 2-Methyl-4-[5-(5,6,7,8-tetrahydro-1,8-naphthyridin-2-yl)pentanoylamino]butanoic acid]	–
> 10000 nM	–	–	O=C(CCCCc1ccc2c(n1)NCCC2)NCCC(Cc1ccccc1)C(=O)O (stereo not shown) [Example 13, 2-Benzyl-4-[5-(5,6,7,8-tetrahydro-1,8-naphthyridin-2-yl)pentanoylamino]butanoic acid]	–
> 10000 nM	–	–	COC(=O)C(CCNC(=O)CCCCc1ccc2c(n1)NCCC2)Cc1ccccc1 (stereo not shown) [Example 11, Methyl 2-benzyl-4-[5-(5,6,7,8-tetrahydro-1,8-naphthyridin-2-yl)pentanoylamino]butanoate]	–
407 nM and 570 nM and 337 nM and 428 nM	15	> 10000	O=C(CCCCc1ccc2c(n1)NCCC2)NCCC(NC(=O)OCc1ccccc1)C(=O)O (stereo not shown) [Example 7, 2-(Benzyloxycarbonylamino)-4-[5-(5,6,7,8-tetrahydro-1,8-naphthyridin-2-yl)pentanoylamino]butanoic acid]	–
121 nM	31	> 10000	O=C(CCCCc1ccc2c(n1)NCCC2)NCCC(C(=O)O)c1cnc2ccccc2c1 (stereo not shown) [Example 84, 2-(quinolin-3-yl)-4-(5-(5,6,7,8-tetrahydro-1,8-naphthyridin-2-yl)pentanamido)butanoic acid]	–
–	–	–	O=C(CCCCc1ccc2c(n1)NCCC2)NCCC(NS(=O)(=O)c1ccc2ccccc2c1)C(=O)O (stereo not shown) [Example 45]	inhibition at specific dose 0.1 (HEK-293-αVβ3 cells [1]; dose 0.1 (table in μM), untreated cells 100% adhesion, 10 mM EDTA 0%): 40%
> 10000 nM	–	–	COC(=O)[C@@H](CCNC(=O)CCCCc1ccc2c(n1)NCCC2)NC(=O)OCc1ccccc1 [Example 6, Methyl (2R)-2-(benzyloxycarbonylamino)-4-[5-(5,6,7,8-tetrahydro-1,8-naphthyridin-2-yl)pentanoylamino]butanoate]	–
> 10000 nM	–	–	O=C(CCCCc1ccc2c(n1)NCCC2)NCCC(NC(=O)Nc1ccc(Oc2ccccc2)cc1)C(=O)O (stereo not shown) [Example 59]	–
373 nM	–	–	O=C(CCCCc1ccc2c(n1)NCCC2)NCCC(C(=O)O)n1cnc(-c2ccccc2)n1 (single isomer, unassigned) [Example 94, (S or R)-2-(3-phenyl-1,2,4-triazol-1-yl)-4-[5-(5,6,7,8-tetrahydro-1,8-naphthyridin-2-yl)pentanoylamino]butanoic acid]	–
> 10000 nM	–	–	COC(=O)C(C)CCNC(=O)CCCCc1ccc2c(n1)NCCC2 (stereo not shown) [Example 10, Methyl 2-methyl-4-[5-(5,6,7,8-tetrahydro-1,8-naphthyridin-2-yl)pentanoylamino]butanoate]	–
–	–	–	CC(C)[C@H]1C(=O)N[C@@H](CCCN=C(N)N)C(=O)NCC(=O)N[C@@H](CC(=O)O)C(=O)N[C@H](Cc2ccccc2)C(=O)N1C [cilengitide, reference compound]	AP5 expression (HEK-293-αVβ3 cells [2]; 1 μM cilengitide, average±SD of 17 experiments): 42.5±8.0 arbitrary fluorescence units
> 10000 nM	–	–	COC(=O)C(CCNC(=O)CCCCc1ccc2c(n1)NCCC2)c1ccccc1 (stereo not shown) [Example 8, Methyl 2-phenyl-4-[5-(5,6,7,8-tetrahydro-1,8-naphthyridin-2-yl)pentanoylamino]butanoate]	–
